Literature values, collected in US20100098759A1, “CONTROLLED-RELEASE PREPARATION CONTAINING CILOSTAZOL AND PROCESS FOR THE PREPARATION THEREOF” (AMOREPACIFIC CORPORATION;, priority 2007, published 2010).

- water-solubility: ≤ 1 µg/mL
Compound: O=C1CCc2cc(OCCCCc3nnnn3C3CCCCC3)ccc2N1 [Cilostazol]
